Results on two compounds are retold here after PMC6021035, “Insights into biological activity of ureidoamides with primaquine and amino acid moieties” (Journal of Enzyme Inhibition and Medicinal Chemistry, 2018).

Series [1] deals with Candida tropicalis ATCC 750. As to the kind of experiment: Minimum biofilm eradication assay. The conditions noted are these: ATCC750, 48 h, read-out: MBEC. The class given is cell-based. As to the method:
(§1) We tested the susceptibility of different bacterial and yeast strains to compounds 5a–f by determining the minimum biofilm eradication concentration (MBEC). The test was performed in a sterile 96-well flat-bottom plastic tissue culture plate (TPP, Switzerland). Each well was filled with 100 µl of bacterial (10^7 CFUs/ml) or yeast (5 × 10^6 CFUs/ml) suspension. When the possibility of inhibition of yeast biofilm formation was tested, the wells were pre-treated with FBS (250 µl per well). Negative controls contained broth only. Positive controls were performed using standard antibacterial and antifungal drugs gentamycin and amphotericin B, respectively. The plates were covered and incubated aerobically for 24 h (bacteria) or 48 h (yeast) at 37 °C. Following the incubation period, each well was aspirated and washed three times with 250 µl of PBS and vigorously shaken in order to remove all non-adherent bacteria/yeast. The remaining attached cells were fixed with methanol (15 min) and the plates were left to dry overnight. The formed biofilm was stained with crystal violet (1%, 5 min). Excess stain was rinsed by placing the plate under running tap water and the plates were left to dry for 24 h. Adherent cells were resolubilized with acetic acid (33%, v/v). The optical density of each well was measured at 570 nm using a Multiscan plate reader. The MBEC value represents the lowest compound dilution at which microorganisms fail to grow.

In series [2] the test system is Escherichia coli ATCC 10536. As to the kind of experiment: Minimum biofilm eradication assay. It counts as cell-based. Here is the method: as §1
In series [3] the test system is Staphylococcus aureus ATCC 6538. As to the kind of experiment: Minimum biofilm eradication assay. It counts as cell-based. As to the method: as §1
The subject of series [4] is Pseudomonas aeruginosa ATCC 27853. As to the kind of experiment: Minimum biofilm eradication assay. It counts as cell-based. Here is the method:
as §1

The test system of series [5] is Escherichia coli ATCC 8739. As to the kind of experiment: Minimum biofilm eradication assay. It counts as cell-based. Here is the method: as §1
The subject of series [6] is Candida albicans ATCC 10231. As to the kind of experiment: Minimum biofilm eradication assay. The class given is cell-based. The settings on record: ATCC10231, 48 h, read-out: MBEC. As to the method: as §1
In series [7] the test system is Candida kefyr ATCC 2512. As to the kind of experiment: Minimum biofilm eradication assay. The conditions noted are these: Kluyveromyces marxianus, ATCC2512, 48 h, read-out: MBEC. The class given is cell-based. Here is the method:
as §1

For series [8], the system named is Candida parapsylosis ATCC 22019. As to the kind of experiment: Minimum biofilm eradication assay. It counts as cell-based. Here is the method: as §1
The subject of series [9] is Candida albicans ATCC 90028. As to the kind of experiment: Minimum biofilm eradication assay. It counts as cell-based. The conditions noted are these: ATCC90028, 48 h, read-out: MBEC. As to the method:
as §1

Series [10] deals with Candida krusei ATCC 14243. As to the kind of experiment: Minimum biofilm eradication assay. It counts as cell-based. The settings on record: Pichia kudriavzevii, ATCC14243, 48 h, read-out: MBEC. As to the method: as §1
Series [11] has as its system Pseudomonas aeruginosa ATCC 9027. As to the kind of experiment: Minimum biofilm eradication assay. It counts as cell-based. As to the method: as §1
For series [12], the system named is Enterococcus faecalis ATCC 29212. As to the kind of experiment: Minimum biofilm eradication assay. The class given is cell-based. As to the method: as §1
Series [13] has as its system Staphylococcus aureus ATCC 25213. As to the kind of experiment: Minimum biofilm eradication assay. The class given is cell-based. As to the method: as §1
Series [14] can be described thus: In vitro haemolytic activity. It counts as cell-based. The settings on record: male, 4% (v/v) fresh human erythrocyte suspension, 4% human erythrocytes, read-out: Haemolysis (%); for hemolysis at 1 h, 50 µg/ml: pH 7, 50 μg/ml; for hemolysis at 1 h, 100 µg/ml: pH 7, 100 μg/ml; for hemolysis at 1 h, 200 µg/ml: pH 7, 200 μg/ml. Here is the method: Then, 4% (v/v) of fresh human erythrocyte solution (hErc) was prepared using a PBS pH 7.0 solution. A series of diluted compounds from 200 to 50 µg/ml were prepared in a total volume of 1 ml with hErc solution. […] Absorbance of the supernatant (200 µl) was recorded at 540 nm using an iEMS microplate reader. The 0.1% (v/v) solution of Triton X100 served as a positive control (as total lysis of hErc), and intact hErc served as a negative control. […] All tests were performed in triplicate and the results were expressed as haemolysis percentage (mean ± SD). Percentage of haemolysis was calculated using the following equation: haemolysis %=Asample-Anc/Apc-Anc×100 where Asample was absorbance of the tested compound, Anc was absorbance of the negative control (intact hErc) and Apc was absorbance of the positive control treated with 0.1% TritonX100. In statistical calculations, p values below 0.05 were considered significant throughout the test. For comparison of mean values, one-way ANOVA with Dunnet’s post-test was used.

Series [15] has as its target T1, soybean lipoxygenase (LOX) (Glycine max, UniProt P08170).
T1 construct: purchased Sigma-Aldrich
T1 sequence (P08170 1-839): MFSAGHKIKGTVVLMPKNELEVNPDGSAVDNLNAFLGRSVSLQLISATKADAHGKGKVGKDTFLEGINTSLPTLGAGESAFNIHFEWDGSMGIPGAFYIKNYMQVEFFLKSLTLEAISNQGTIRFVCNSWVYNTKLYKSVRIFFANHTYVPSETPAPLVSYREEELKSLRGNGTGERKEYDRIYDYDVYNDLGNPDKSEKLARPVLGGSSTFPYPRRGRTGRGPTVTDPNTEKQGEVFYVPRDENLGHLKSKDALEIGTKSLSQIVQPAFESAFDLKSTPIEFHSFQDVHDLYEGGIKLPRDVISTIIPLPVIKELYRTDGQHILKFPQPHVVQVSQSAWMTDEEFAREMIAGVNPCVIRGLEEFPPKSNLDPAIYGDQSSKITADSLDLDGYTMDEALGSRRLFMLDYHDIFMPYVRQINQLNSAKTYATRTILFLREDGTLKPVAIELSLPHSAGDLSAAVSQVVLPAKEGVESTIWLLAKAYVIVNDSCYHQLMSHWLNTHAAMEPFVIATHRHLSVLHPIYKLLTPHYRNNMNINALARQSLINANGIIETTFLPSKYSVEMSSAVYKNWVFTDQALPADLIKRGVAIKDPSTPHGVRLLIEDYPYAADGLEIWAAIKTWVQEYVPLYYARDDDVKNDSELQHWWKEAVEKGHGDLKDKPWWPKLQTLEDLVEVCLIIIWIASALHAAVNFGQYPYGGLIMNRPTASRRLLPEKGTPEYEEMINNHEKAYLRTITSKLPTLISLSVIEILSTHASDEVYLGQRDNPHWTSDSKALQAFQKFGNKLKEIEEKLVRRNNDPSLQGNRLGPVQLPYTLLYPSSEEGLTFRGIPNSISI
As to the kind of experiment: In vitro soybean lipoxygenase (LOX) inhibition. It counts as biochemical. The conditions noted are these: sodium linoleate 0.1 mM, read-out: LOX inhibition (IC50 μM) ± SD. Here is the method:
In vitro LOX inhibition assay was accomplished as described previously. Test compounds (stock solutions 10 mM in DMSO) were incubated at room temperature with sodium linoleate (0.1 mM) and 0.2 ml of LOX solution (0.1 mg in 10 ml saline). Conversion of sodium linoleate to 13-hydroperoxylinoleic acid was measured at 234 nm and compared to the reference inhibitor. Several concentrations were used for IC50 determination.

The structures appear in SMILES notation.

By IC50 is commonly meant the concentration at which inhibition is half-maximal. With `COc1cc(NC(C)CCCNC(=O)NC(C(=O)NC(c2ccccc2)c2ccc(Cl)cc2)c2ccc(Cl)cc2)c2ncccc2c1` (stereo not shown) [Compound 5e, 2–(4-chlorophenyl)-N-[(4-chlorophenyl)(phenyl)methyl]-2-[({4-[(6-methoxyquinolin-8-yl)amino]pentyl}carbamoyl)amino]acetamide], the minimal effective concentration in [1] was over 100 µg/mL; in series [6] it was 25 µg/mL; in series [7], 6.25 µg/mL; in series [9], 25 µg/mL; in series [10], over 100 µg/mL. Further, the MBEC in [2] is 50 µg/mL; in series [3] it was over 100 µg/mL; in series [4], over 100 µg/mL; in series [5], 50 µg/mL; in [8], over 100 µg/mL; in [11], over 100 µg/mL. The MBEC in series [12] and in series [13] was over 100 µg/mL each time. In addition, the hemolysis at 1 h, 50 µg/ml in series [14] worked out at 2.78 ± 0.04%. In addition, the hemolysis at 1 h, 100 µg/ml in series [14] is 3.23 ± 0.05%. For the same compound, the hemolysis at 1 h, 200 µg/ml in series [14] came out at 3.7 ± 0.08%. Besides, in series [15], the IC50 is 56 ± 2.3 µM.

With `COc1ccc(C(=NNC(=O)C(NC(=O)NCCCC(C)Nc2cc(OC)cc3cccnc23)c2ccc(Cl)cc2)c2ccccc2)cc1` (stereo not shown) [Compound 5f, 3-[(4-chlorophenyl)({N'-[(4-methoxyphenyl)(phenyl)methylidene]hydrazinecarbonyl})methyl]-1-{4-[(6-methoxyquinolin-8-yl)amino]pentyl}urea], the minimal effective concentration in series [1] was over 100 µg/mL; in [6], 25 µg/mL; in series [7], 6.25 µg/mL; in series [9] it was 25 µg/mL; in series [10], over 100 µg/mL. The MBEC in series [2] is 12.5 µg/mL; in series [3], over 100 µg/mL; in series [4] it was over 100 µg/mL; in series [5], 6.25 µg/mL; in series [8] it was over 100 µg/mL; in [11] it was over 100 µg/mL. For the same compound, the MBEC in series [12] and in [13] was over 100 µg/mL each time. For the same compound, the hemolysis at 1 h, 50 µg/ml in series [14] amounted to 3.32 ± 0.05%. Further, the hemolysis at 1 h, 100 µg/ml in series [14] is 3.66 ± 0.05%. For the same compound, the hemolysis at 1 h, 200 µg/ml in [14] was found to be 4.03 ± 0.09%. Moreover, in series [15], the IC50 came to 67.5 ± 1.1 µM.
